Test results reported in ChEMBL document CHEMBL4385615, “Design and Synthesis of Type-IV Inhibitors of BRAF Kinase That Block Dimerization and Overcome Paradoxical MEK/ERK Activation” (J Med Chem, 2019).
Values belong to the compound of their own block, whether it stands above or below them. Peptide text beside a SMILES is read from it.

What was measured:
[1] = molecular target: T1, Serine/threonine-protein kinase B-raf (Homo sapiens, UniProt P15056); test: Binding affinity to BRAF (unknown origin) by intrinsic tryptophan fluorescence assay
T1 sequence (P15056 whole entry): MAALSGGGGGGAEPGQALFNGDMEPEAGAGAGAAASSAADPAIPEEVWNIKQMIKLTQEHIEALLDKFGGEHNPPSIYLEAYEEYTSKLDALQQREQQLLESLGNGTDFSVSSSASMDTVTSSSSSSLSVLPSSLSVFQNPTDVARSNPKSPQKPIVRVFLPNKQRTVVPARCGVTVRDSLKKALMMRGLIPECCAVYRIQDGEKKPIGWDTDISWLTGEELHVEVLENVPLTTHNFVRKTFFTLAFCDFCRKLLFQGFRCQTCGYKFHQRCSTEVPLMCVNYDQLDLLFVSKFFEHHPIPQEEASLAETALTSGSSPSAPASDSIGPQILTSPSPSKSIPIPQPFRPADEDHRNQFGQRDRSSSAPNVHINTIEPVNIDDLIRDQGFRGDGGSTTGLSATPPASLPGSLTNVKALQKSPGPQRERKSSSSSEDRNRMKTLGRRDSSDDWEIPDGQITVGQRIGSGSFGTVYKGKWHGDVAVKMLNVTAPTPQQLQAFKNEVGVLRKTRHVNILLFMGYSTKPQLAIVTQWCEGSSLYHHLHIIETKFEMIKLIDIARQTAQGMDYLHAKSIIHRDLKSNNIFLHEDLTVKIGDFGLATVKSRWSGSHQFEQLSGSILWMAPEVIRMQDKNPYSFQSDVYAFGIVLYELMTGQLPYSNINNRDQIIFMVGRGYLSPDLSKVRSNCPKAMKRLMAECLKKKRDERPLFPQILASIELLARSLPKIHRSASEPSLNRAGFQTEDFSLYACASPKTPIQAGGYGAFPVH

MCF-10A [2] = test: Antiproliferative activity against EGF-dependent human MCF10A cells assessed as inhibition of colony growth at 1.5 uM supplemented with fresh medium containing compound every 2 days for 11 days; format: functional
[3] = molecular target: T1, Serine/threonine-protein kinase B-raf; test: Inhibition of BRAF in NRAS Q61K mutant-driven human SBcl2 cells assessed as suppression of vemurafenib-induced phosphorylation of ERK expression administered via electroporation for 30 mins followed by vemurafenib addition and measured after 1 hr by Western blot analysis
[4] = molecular target: T1, Serine/threonine-protein kinase B-raf; test: Inhibition of BRAF in NRAS Q61K mutant-driven human SBcl2 cells assessed as suppression of vemurafenib-induced phosphorylation of ERK expression at 300 uM administered via electroporation for 30 mins followed by vemurafenib addition and measured after 1 hr by Western blot analysis
[5] = molecular target: T1, Serine/threonine-protein kinase B-raf; test: Inhibition of BRAF in NRAS Q61K mutant-driven human SBcl2 cells assessed as suppression of vemurafenib-induced phosphorylation of MEK expression at 300 uM administered via electroporation for 30 mins followed by vemurafenib addition and measured after 1 hr by Western blot analysis
[6] = molecular target: T1, Serine/threonine-protein kinase B-raf; test: Inhibition of BRAF in NRAS Q61K mutant-driven human SBcl2 cells assessed as suppression of vemurafenib-induced phosphorylation of MEK expression administered via electroporation for 30 mins followed by vemurafenib addition and measured after 1 hr by Western blot analysis
MCF-10A [7] = test: Antiproliferative activity against EGF-dependent human MCF10A cells assessed as inhibition of colony growth at 2 uM supplemented with fresh medium containing compound every 2 days for 11 days; format: functional

Structure (SMILES): CC[C@H](C)[C@H](NC(=O)[C@H](CC(C)C)NC(=O)[C@@H](NC(=O)[C@H](CC(N)=O)NC(=O)[C@@H](NC(=O)[C@H](Cc1cnc[nH]1)NC(=O)[C@H](CCCNC(=N)N)NC(=O)[C@@H](NC(=O)[C@H](CCCCN)NC(=O)[C@H](CCCNC(=N)N)NC(=O)[C@H](CC(C)C)NC(=O)[C@@H](NC(=O)CN)C(C)C)[C@@H](C)O)C(C)C)[C@@H](C)CC)C(=O)N[C@@H](Cc1ccccc1)C(=O)N[C@@H](CCSC)C(=O)NCC(=O)N[C@@H](Cc1ccc(O)cc1)C(=O)N[C@@H](CO)C(=O)N[C@H](C(=O)O)[C@@H](C)O
Kd ([1]; read-out: Kd): 4.1 µM

Kd ([1]; read-out: Kd): 1.88 µM
Structure (SMILES): CC[C@H](C)[C@H](NC(=O)[C@H](CC(N)=O)NC(=O)[C@@H](NC(=O)[C@H](Cc1cnc[nH]1)NC(=O)[C@H](CCCNC(=N)N)NC(=O)[C@@H](NC(=O)[C@H](CCCCN)NC(=O)[C@H](CCCNC(=N)N)NC(=O)[C@H](CC(C)C)NC(=O)[C@@H](NC(=O)CN)C(C)C)[C@@H](C)O)C(C)C)C(=O)N[C@@H](CC(C)C)C(=O)N[C@@H](CC(C)C)C(=O)N[C@@H](Cc1ccccc1)C(=O)N[C@@H](CCSC)C(=O)NCC(=O)O (H-GVLRKTRHVNILLFMG-OH)

Kd [1]: Not Active
Structure (SMILES): CC[C@H](C)[C@H](NC(=O)[C@H](CC(N)=O)NC(=O)[C@@H](NC(=O)[C@H](Cc1cnc[nH]1)NC(=O)[C@H](Cc1cnc[nH]1)NC(=O)[C@@H](NC(=O)[C@H](CCCCN)NC(=O)[C@H](CCCNC(=N)N)NC(=O)[C@H](CC(C)C)NC(=O)[C@@H](NC(=O)CN)C(C)C)[C@@H](C)O)C(C)C)C(=O)N[C@@H](CC(C)C)C(=O)NCC(=O)N[C@@H](Cc1ccccc1)C(=O)N[C@@H](Cc1c[nH]c2ccccc12)C(=O)NCC(=O)N[C@@H](Cc1ccc(O)cc1)C(=O)N[C@@H](CO)C(=O)N[C@H](C(=O)O)[C@@H](C)O (H-GVLRKTHHVNILGFWGYST-OH)

Structure (SMILES): CC[C@H](C)[C@H](NC(=O)[C@H](CC(N)=O)NC(=O)[C@@H](NC(=O)[C@H](Cc1cnc[nH]1)NC(=O)[C@H](CCCNC(=N)N)NC(=O)[C@@H](NC(=O)[C@H](CCCCN)NC(=O)[C@H](CC(C)C)NC(=O)[C@H](CC(C)C)NC(=O)[C@@H](NC(=O)CN)C(C)C)[C@@H](C)O)C(C)C)C(=O)N[C@@H](CC(C)C)C(=O)N[C@@H](CC(C)C)C(=O)N[C@@H](Cc1ccccc1)C(=O)N[C@@H](CCSC)C(=O)NCC(=O)N[C@@H](Cc1ccc(O)cc1)C(=O)N[C@@H](CO)C(=O)N[C@H](C(=O)O)[C@@H](C)O
Kd ([1]; read-out: Kd): 0.54 µM

Kd [1]: Not Active
Structure (SMILES): CC[C@H](C)[C@H](NC(=O)[C@H](CC(N)=O)NC(=O)[C@@H](NC(=O)[C@H](Cc1cnc[nH]1)NC(=O)[C@H](CCCNC(=N)N)NC(=O)[C@@H](NC(=O)[C@H](CCCCN)NC(=O)[C@H](CCCNC(=N)N)NC(=O)[C@H](CC(C)C)NC(=O)[C@@H](NC(=O)CN)C(C)C)[C@@H](C)O)C(C)C)C(=O)N[C@@H](CC(C)C)C(=O)N[C@@H](CC(C)C)C(=O)N[C@@H](CC(=O)O)C(=O)N[C@@H](CCSC)C(=O)NCC(=O)N[C@@H](Cc1ccc(O)cc1)C(=O)N[C@@H](CO)C(=O)N[C@H](C(=O)O)[C@@H](C)O

Structure (SMILES): CC[C@H](C)[C@H](NC(=O)[C@H](CC(N)=O)NC(=O)[C@@H](NC(=O)[C@H](Cc1cnc[nH]1)NC(=O)[C@H](CCCNC(=N)N)NC(=O)[C@@H](NC(=O)[C@H](CCCCN)NC(=O)[C@H](CCCNC(=N)N)NC(=O)[C@H](CC(C)C)NC(=O)[C@@H](N)C(C)C)[C@@H](C)O)C(C)C)C(=O)N[C@@H](CC(C)C)C(=O)N[C@@H](CC(C)C)C(=O)N[C@@H](Cc1ccccc1)C(=O)N[C@@H](CCSC)C(=O)NCC(=O)O
inhibition (INH) (MCF-10A [2]): 100%

Structure (SMILES): CC[C@H](C)[C@H](NC(=O)[C@H](CC(N)=O)NC(=O)[C@@H](NC(=O)[C@H](Cc1cnc[nH]1)NC(=O)[C@H](CCCNC(=N)N)NC(=O)[C@@H](NC(=O)[C@H](CCCCN)NC(=O)[C@H](CCCNC(=N)N)NC(=O)[C@H](CC(C)C)NC(=O)[C@@H](NC(=O)CN)C(C)C)[C@@H](C)O)C(C)C)C(=O)N[C@@H](C)C(=O)N[C@@H](CC(C)C)C(=O)N[C@@H](Cc1ccccc1)C(=O)N[C@@H](CCSC)C(=O)NCC(=O)N[C@@H](Cc1ccc(O)cc1)C(=O)N[C@@H](CO)C(=O)N[C@H](C(=O)O)[C@@H](C)O
Kd ([1]; read-out: Kd): 9.8 µM

Structure (SMILES): CC[C@H](C)[C@H](NC(=O)[C@H](CC(N)=O)NC(=O)[C@@H](NC(=O)[C@H](Cc1cnc[nH]1)NC(=O)[C@H](CCCNC(=N)N)NC(=O)[C@H](CC(=O)O)NC(=O)[C@H](CCCCN)NC(=O)[C@H](CCCNC(=N)N)NC(=O)[C@H](CC(C)C)NC(=O)[C@@H](NC(=O)CN)C(C)C)C(C)C)C(=O)N[C@@H](CC(C)C)C(=O)N[C@@H](CC(C)C)C(=O)N[C@@H](Cc1ccccc1)C(=O)N[C@@H](CCSC)C(=O)NCC(=O)N[C@@H](Cc1ccc(O)cc1)C(=O)N[C@@H](CO)C(=O)N[C@H](C(=O)O)[C@@H](C)O
Kd ([1]; read-out: Kd): 2.2 µM

Structure (SMILES): CC[C@H](C)[C@H](NC(=O)[C@H](CC(N)=O)NC(=O)[C@@H](NC(=O)[C@H](Cc1cnc[nH]1)NC(=O)[C@H](CCCNC(=N)N)NC(=O)[C@@H](NC(=O)[C@H](CCCCN)NC(=O)[C@H](CCC(=O)O)NC(=O)[C@H](CC(C)C)NC(=O)[C@@H](NC(=O)CN)C(C)C)[C@@H](C)O)C(C)C)C(=O)N[C@@H](CC(C)C)C(=O)N[C@@H](CC(C)C)C(=O)N[C@@H](Cc1ccccc1)C(=O)N[C@@H](CCSC)C(=O)NCC(=O)N[C@@H](Cc1ccc(O)cc1)C(=O)N[C@@H](CO)C(=O)N[C@H](C(=O)O)[C@@H](C)O
Kd ([1]; read-out: Kd): 1.09 µM

Kd [1]: Not Active
Structure (SMILES): CC[C@H](C)[C@H](NC(=O)[C@H](C)NC(=O)[C@@H](NC(=O)[C@H](Cc1cnc[nH]1)NC(=O)[C@H](CCCNC(=N)N)NC(=O)[C@@H](NC(=O)[C@H](CCCCN)NC(=O)[C@H](CCCNC(=N)N)NC(=O)[C@H](CC(C)C)NC(=O)[C@@H](N)C(C)C)[C@@H](C)O)C(C)C)C(=O)N[C@@H](CC(C)C)C(=O)N[C@@H](CC(C)C)C(=O)N[C@@H](Cc1ccccc1)C(=O)N[C@@H](CCSC)C(=O)NCC(=O)O (H-VLRKTRHVAILLFMG-OH)

inhibition [3]: Dose-dependent effect | inhibition [4]: 100% | inhibition [5]: 100% | inhibition [6]: Dose-dependent effect
Structure (SMILES): CC[C@H](C)[C@H](NC(=O)[C@H](CC(N)=O)NC(=O)[C@@H](NC(=O)[C@H](Cc1cnc[nH]1)NC(=O)[C@H](CCCNC(=N)N)NC(=O)[C@@H](NC(=O)[C@H](CCCCN)NC(=O)[C@H](CCCNC(=N)N)NC(=O)[C@H](CC(C)C)NC(=O)[C@@H](NC(=O)CN)C(C)C)[C@@H](C)O)C(C)C)C(=O)N[C@@H](CC(C)C)C(=O)N[C@@H](CC(C)C)C(=O)N[C@@H](Cc1ccccc1)C(=O)N[C@@H](CCSC)C(=O)NCC(=O)N[C@@H](Cc1ccc(O)cc1)C(=O)N[C@@H](CO)C(=O)N[C@H](C(=O)O)[C@@H](C)O
inhibition (INH) (MCF-10A [7]): 100%

Kd [1]: Not Active
Structure (SMILES): CC[C@H](C)[C@H](NC(=O)[C@H](CC(N)=O)NC(=O)[C@@H](NC(=O)[C@H](Cc1ccccc1)NC(=O)[C@H](CCCNC(=N)N)NC(=O)[C@@H](NC(=O)[C@H](CCCCN)NC(=O)[C@H](CCCNC(=N)N)NC(=O)[C@H](CC(C)C)NC(=O)[C@@H](NC(=O)CN)C(C)C)[C@@H](C)O)C(C)C)C(=O)N[C@@H](CC(C)C)C(=O)N[C@@H](CC(C)C)C(=O)N[C@@H](Cc1ccccc1)C(=O)N[C@@H](CCSC)C(=O)NCC(=O)N[C@@H](Cc1ccc(O)cc1)C(=O)N[C@@H](CO)C(=O)N[C@H](C(=O)O)[C@@H](C)O

Structure (SMILES): CSCC[C@@H]1NC(=O)[C@H](Cc2ccccc2)NC(=O)[C@H](CC(C)C)NC(=O)[C@H](CC(C)C)NC(=O)[C@H](CCC(=O)O)NC(=O)[C@H](CC(N)=O)NC(=O)[C@H](C(C)C)NC(=O)[C@H](Cc2cnc[nH]2)NC(=O)[C@H](CCCNC(=N)N)NC(=O)[C@H](CCCCN)NC(=O)[C@H](CCCCN)NC(=O)[C@H](CCCNC(=N)N)NC(=O)[C@H](CC(C)C)NC(=O)CNC1=O
Kd ([1]; read-out: Kd): 1.89 µM

Structure (SMILES): CC[C@H](C)[C@H](NC(=O)[C@H](CC(N)=O)NC(=O)[C@H](C)NC(=O)[C@H](Cc1cnc[nH]1)NC(=O)[C@H](CCCNC(=N)N)NC(=O)[C@@H](NC(=O)[C@H](CCCCN)NC(=O)[C@H](CCCNC(=N)N)NC(=O)[C@H](CC(C)C)NC(=O)[C@@H](NC(=O)CN)C(C)C)[C@@H](C)O)C(=O)N[C@@H](CC(C)C)C(=O)N[C@@H](CC(C)C)C(=O)N[C@@H](Cc1ccccc1)C(=O)N[C@@H](CCSC)C(=O)NCC(=O)N[C@@H](Cc1ccc(O)cc1)C(=O)N[C@@H](CO)C(=O)N[C@H](C(=O)O)[C@@H](C)O
Kd ([1]; read-out: Kd): 4.75 µM
